Source: patent US20200032271A1, “COMBINATION THERAPY WITH LIPOSOMAL ANTISENSE OLIGONUCLEOTIDES” (Bio-Path Holdings, Inc., priority 2016, published 2020)
Several values for one entry are separate records, joined by “and”; a condition that tells them apart may be missing. Identical values can stand only once. [PEt] = P-ethoxy (ethyl phosphotriester) internucleoside linkage

Tests used:
[1] = test system: 32Dp210 Bcr-Abl positive leukemia cells; assay: Survival of mice injected with 32Dp210 Bcr-Abl positive leukemia cells, first study; assay type: in vivo
Method: In one study, mice injected with 32Dp210 Bcr-Abl positive leukemia cells were treated with BP1001 (15 mg/kg/dose) or control (empty DOPC liposomes) intravenously beginning one day after injection of tumor cells, twice weekly for up to 6 weeks Mice were observed daily for moribundity/morbidity. All surviving mice were euthanized on Day 40. In mice injected with 32Dp210 Bcr-Abl positive leukemia cells, 60% treated with BP1001 survived to 40 days (end of study) compared to 17% of mice receiving empty liposomes. Mean survival duration in these treated animals was 31.6±13.1 days compared to 23.7±8.3 days in the empty liposome group (FIG. 6A).

[2] = test system: imatinib-sensitive and imatinib-resistant CML cell lines; assay: Growth inhibition and ERK1,2/Akt phosphorylation in CML cell lines; assay type: cell-based; details: preclinical studies
Description: BP1001 is a neutral liposome incorporated with the nuclease-resistant, hydrophobic P-ethoxy antisense oligos targeted to Grb2 mRNA. In preclinical studies, BP1001 was effective in inducing growth inhibition and decreasing ERK1,2 and Akt phosphorylation in imatinib-sensitive and imatinib-resistant CML cell lines.

[3] = Phase I study: dose-limiting toxicity and maximum tolerated dose; assay type: in vivo, human
Method: A BP1001 phase I study was conducted in two parts: (A) BP1001 dose escalation and (B) BP1001 with concurrent low-dose cytarabine (LDAC) dose expansion. For dose escalation (Part A), a standard “3+3” design was used in which successive cohorts of 3 or more patients with hematologic malignancies were treated at escalating doses from 5 to 135 mg/m^2 of BP1001 until a maximum tolerated dose (MTD) was identified. For the dose expansion portion of the study (Part B), two successive subsets of patients with AML were treated with BP1001 at the MTD (or highest tested dose [HTD]) and one level below the MTD (or HTD) in combination with a fixed dose of LDAC to further characterize safety and biological effect, as well as identify the recommended phase 2 dose. Both parts of the study employed an open-label, sequential, dose-escalation design to assess safety, tolerability and toxicity, pharmacokinetics (PK), tumor response, and anti-leukemic activity. A total of 39 patients were treated in the study: AML (n=30), CML-BP (n=5), and MDS (n=4). Of 39 patients, 27 were evaluable; 12 failed completion of a full cycle due to disease progression and were replaced per protocol. Only one patient on 5 mg/m^2 experienced a dose-limiting toxicity (DLT), grade 3 mucositis and hand-foot syndrome, while on high-dose hydroxyurea for proliferative CML-BP. The study medication could not be ruled out as a contributing factor, so this event was reported as a DLT. Upon expansion to six patients, no other patient developed a DLT. No other drug related toxicity has been observed in any of the patients treated. […] The HTD for BP1001 is 90 mg/m^2.
The study was designed as a standard 3+3 dose escalation trial for the assessment of safety, pharmacokinetics and efficacy of BP1001 in adult patients diagnosed with refractory/relapsed Philadelphia chromosome positive CML or ALL, AML, or MDS. Cohorts of three patients were enrolled at each dose level. The initial dose of BP1001 was 5 mg/m^2 (Cohort 1). If one patient developed a grade 3 or higher toxicity, three more patients were accrued at that dose level. […]

[4] = rat, in vivo, iv
Method: Blood (0.3 mL) was collected through the right femoral artery at 5, 10, 20, 30, 60, 90, 120, 180, and 240 minutes following injection. After each withdrawal, the catheter was flushed with sodium heparin 1:1000 (Units/mL). Whole blood samples were extracted and assayed for ^32P radioactivity by liquid scintillation as previously described (Tani, 1998; Gutierrez-Puente, 1999). Pharmacokinetic parameters were determined by nonlinear regression analysis (Rstrip; Micro Math, Inc., Salt Lake City, Utah).

[5] = test system: phosphorylated Erk1,2 (pErk); assay: Flow cytometry of pErk levels in circulating leukemia cells of patients; assay type: in vivo, human; details: for pErk decrease (%) (Day 15) / pErk decrease (%) (Day 22 or end-of-treatment): individual subjects
Description: (§1) Flow cytometry was used to determine the levels of Grb2 and pErk proteins in the circulating leukemia cells of patients who were on BP1001 single agent therapy, and were reported as median fluorescent intensity (MFI). MFI of Grb2 and pErk during treatment were compared to those at baseline.
Peripheral blood was collected from patients in cohorts 3, 4, 5, and 6, before being dosed on Cycle 1 days 1, 8, 15 and 22, and Cycle 2 day 1. White blood cells were isolated from peripheral blood using BD Vacutainer CPT cell preparation tubes with sodium heparin (BD Dickinson), fixed and stored in −80° C. freezer. Flow cytometry was utilized to determine Grb2 and phosphorylated Erk1,2 (pErk) levels in CD33-expressing cells using a validated method (Flow Contract Site Laboratory, Bothell, Wash., USA).
as §1, with “utilized” for “used”, “baseline (Table 7).” for “baseline.”

## BP1001: liposome-incorporated P-ethoxy antisense oligodeoxynucleotide (5′-ATATTTGGCGATGGCTTC-3′, SEQ ID NO: 1) specific to grb2 mRNA, in neutral DOPC liposomes (DNA, all [PEt], methylation of C not given here; incorporated in neutral DOPC liposomes)
[1]; 15 mg/kg/dose i.v. twice weekly
  Mean survival duration: 31.6 ± 13.1 days
[1]; 15 mg/kg/dose i.v. twice weekly from day 1 after tumor cells
  mice surviving to 40 days (end of study): 60%
[2]
  growth inhibition and decrease of ERK1,2 and Akt phosphorylation: effective
[3]; 5 mg/m^2, patient on high-dose hydroxyurea for CML-BP, no other DLT after expansion to six
  patients with dose-limiting toxicity (grade 3 mucositis and hand-foot syndrome): one
[3]; patients
  highest tested dose (HTD): 90 mg/m^2
[3]; patients, 5 to 90 mg/m^2 i.v. twice weekly
  maximum tolerated dose (MTD): not identified
[4]
  t1/2α (initial distribution phase): 5.16 ± 0.3 min
[4]; 10 mg/kg
  Area under the concentration curve (AUC): 5.4 ± 0.9 mg·min/mL
  immediate apparent volume of distribution: 36.42 ± 1.88 mL
  residence time: 309.6 ± 21.5 min
  terminal phase half-life (t1/2β): 225.6 ± 13.2 min
[5]; cohort 3, 20 mg/m^2
  pErk decrease (%) (Day 15): 3% and 28% and 0%
  pErk decrease (%) (Day 22 or end-of-treatment): 45% and 35% and 0%
[5]; cohort 4, 40 mg/m^2
  pErk decrease (%) (Day 15): 82% and 0%
  pErk decrease (%) (Day 22 or end-of-treatment): 91% and 0% and 27%
[5]; cohort 5, 60 mg/m^2
  pErk decrease (%) (Day 15): 0% and 51% and 55%
  pErk decrease (%) (Day 22 or end-of-treatment): 54% and 0% and 47%
[5]; cohort 6, 90 mg/m^2
  pErk decrease (%) (Day 15): 0% and 54% and 42%
  pErk decrease (%) (Day 22 or end-of-treatment): 0% (2×) and 63%
[5]; last measured sample
  average decrease in pErk levels: 52%
[5]; last measured sample (end of treatment or cycle 1 day 22), MFI vs baseline
  samples with ≥25% decrease of pErk levels: 7 out of 12
